Data on 64 compounds can be found in patent US20070135437A1, “Modulation of neurodegenerative diseases” (ALSGEN, INC., priority 2005, published 2007).

SMILES strings stand for the structures.

One assay relates to hSOD-1 protein levels in HeLa cells. Nature of the assay: SOD-1 ELISA on lysates of HeLa cells after 72 h incubation with compound. In kind it is cell-based, human. The conditions noted are these: HeLa cells, 72 hours; dose related, maximal by 10 μM. How it is done:
Briefly, cells were maintained in Dulbecco's Minimal Essential Medium, with high glucose, supplemented with glutamine, 4 mM, certified fetal bovine serum, 10%, and penicillin, streptomycin, and nystatin (all from Invitrogen). Incubation conditions were 37 degrees and 99% relative humidity, with CO2 at 5%. Cultures were passaged when they reached 90% confluence. For pharmacological experiments, cells were plated into sterile tissue culture treated 96 well plates at a density of 3,500 cells/well in 150 μl medium. After plating and 6 hours for attachment, drugs were added to the medium in a concentration of 10 μM. Following 72 hours of incubation with the drugs, the cells were photographed at 100× using an inverted microscope and digital camera, so that cytotoxicity could be evaluated. After photodocumentation, the medium was removed and the cells were washed once with phosphate buffered saline, and then 50-100 μl molecular biology grade water containing a protease inhibitor cocktail was added. After 10 min incubation, the plates were placed in −80 degrees to induce complete lysis. Plates were then thawed and 4-25 μl was transferred from each well into a maxsorp ELISA plate coated with anti-human SOD-1 antibody, which contained 75-100 μl phosphate buffered saline or blocking buffer. A second antibody pair (a polyclonal anti-SOD-1/HRP conjugated goat anti-rabbit) was then added to the well, and incubation was conducted for 1 hour at room temperature. At the conclusion of the incubation, the plate was washed three times (wash buffer from KPL Inc.) and Sure Blue Reserve HRP Substrate was added. Following a 5-10 min incubation, the reaction (which had turned blue to varying degrees) was stopped by the addition of a stop reagent (KPL). The plate was then shaken gently for 5 seconds and the absorbance at 450 nm read on a Tecan Plate reader. Absorbance from each sample were compared to standard curve of purified recombinant human SOD-1 assayed on the same ELISA plate, and SOD-1 immunoreactivity (ng/ml) was estimated by comparison with the standard curve. This example describes how to examine the in vitro effects of the antimalarial drug, pyrimethamine, as well as the compounds listed in Tables 1 through 5, on SOD-1 activity. The human cervical carcinoma derived HeLa cell line (ATCC) were cultured in Dulbecco's Minimal Essential Medium, with high glucose, supplemented with glutamine, 4 mM, certified fetal bovine serum, 10%, and penicillin, streptomycin, and nystatin (all from Invitrogen). Incubation conditions were 37° C. and 99% relative humidity, with CO2 at 5%. Cultures were passaged when they reached 90% confluence. For pharmacological experiments, cells were plated into sterile tissue culture treated 96 well plates at a density of 3,500 cells/well in 150 μl medium. Following 72 hours of incubation with each of the compounds, the cells were photographed and processed as described in Example 1 (iii). The total protein of the lysates was determined by Bradford assay as described in Example 1 (iv).
For orientation: In an ELISA, binding on a coated surface is turned into a signal by an enzyme label.
With `CN(Cc1cnc2nc(N)nc(N)c2n1)c1ccc(C(=O)N[C@@H](CCC(=O)O)C(=O)O)cc1` [methotrexate, reference compound], the “levels of SOD-1 protein in HeLa cells” value is on record as “did not reduce”.

Staying with this assay, now noted: Table 1B; % reduction of hSOD-1 protein levels in HeLa cells, 72 h treatment, 10 μM.
Regarding `Cc1cc(-c2ccccc2)nc(N(C)C)n1` [Compound 1], the “Biological Activity (% inhibition at 10 μM)” value is 33%. On the same count and under the same terms, as for `CN(C)c1cc(Cl)nc(SCc2ccccc2)n1` [Compound 2], the figure is 77%. `Cc1cc(C)nc(SCc2cccc(Br)c2)n1` [Compound 3]: the “Biological Activity (% inhibition at 10 μM)” value is 88%. Same read-out and setting: the value for `Cc1ccc(Nc2nc(Cl)nc(Cl)c2Cl)cc1` [Compound 4] was 96%; that for `Cc1cnc(SCc2ccccc2Cl)nc1O` [Compound 5] was 79%; that for `CCc1nc(N)nc(N)c1-c1ccc(Cl)cc1` [Compound 6] was 50%. Same read-out and setting: the value for `Cc1cccc(Oc2cnc(S)nc2O)c1` [Compound 7] was 94%. The same measure, in the same setting: as for `Nc1nc(S)ncc1-c1cccc(Cl)c1` [Compound 8], the figure is 99%; as for `N#Cc1ccc(CSc2nc(O)cc(O)n2)cc1` [Compound 9], 58%. For `CCCOc1ccc(-c2cnc(S)nc2N)cc1` [Compound 10], the “Biological Activity (% inhibition at 10 μM)” value was found to be 99%. `CCOc1ccc(-c2cnc(S)nc2N)cc1` [Compound 11]: the “Biological Activity (% inhibition at 10 μM)” value worked out at 99%.

For `COc1ccc(Cc2c(Cl)nc(SC)nc2Cl)cc1` [Compound 12], the “Biological Activity (% inhibition at 10 μM)” value was 40%. For the compound `CC(Oc1ccc(Cl)cc1)c1ccnc(N)n1` (stereo not shown) [Compound 22], the “Biological Activity (% inhibition at 10 μM)” value was 84%. Same read-out and setting: the value for `Nc1nc(O)ncc1-c1ccc(Cl)cc1` [Compound 23] was 99%; that for `Nc1nc(SCC(=O)O)ncc1-c1ccc(Cl)cc1` [Compound 24] was 99%.

Regarding `Cc1ccc(Oc2cnc(S)nc2O)cc1` [Compound 25], the “Biological Activity (% inhibition at 10 μM)” value was 97%. On the same count and under the same terms, the value for `Cc1nc(N)nc(O)c1C=CCc1ccc(Cl)cc1` [Compound 26] was 97%; that for `Cc1nc(N)nc(N)c1CCCCc1ccc(O)cc1` [Compound 27] was 95%; that for `CSc1ncc(Oc2ccc(Cl)cc2)c(O)n1` [Compound 88] was 90%. The same measure, in the same setting: the value for `COc1ccc(-c2cc(O)ncn2)cc1OC` [Compound 89] was 84%; that for `Nc1ccc(Sc2cc(Cl)nc(N)n2)cc1` [Compound 92] was 81%; that for `Cc1cc(C)nc(NC(=N)Nc2cccc(Cl)c2)n1` [Compound 93] was 78%. Still for that read-out and setting: as for `Cc1cc(C)nc(Sc2ccc(N)cc2)n1` [Compound 94], the figure is 77%; as for `CSc1nc(N)nc(-c2ccc(Cl)cc2)c1C#N` [Compound 95], 76%; as for `CCc1c(O)ncnc1-c1ccc(C)cc1` [Compound 96], 70%.

For `CSc1ccc(CCCc2c(C)nc(N)nc2N)cc1` [Compound 97], the “Biological Activity (% inhibition at 10 μM)” value is given as 69%. Still for that read-out and setting: the value for `COc1ccc(Cc2c(C)nc(N)nc2O)cc1` [Compound 98] was 67%. Still for that read-out and setting: the value for `Oc1ccnc(SCc2ccc(Cl)cc2Cl)n1` [Compound 99] was 66%. The same measure, in the same setting: the value for `COc1ccc(CCCc2c(C)nc(N)nc2N)cc1` [Compound 100] was 65%; that for `Oc1ccnc(SCc2c(F)cccc2Cl)n1` [Compound 101] was 65%; that for `COc1ccc(Cc2cnc(N)nc2N)cc1OC` [Compound 102] was 64%. For the compound `N#Cc1ccc(CSc2nccc(O)n2)cc1` [Compound 105], the “Biological Activity (% inhibition at 10 μM)” value is listed as 53%. Regarding `N#Cc1c(Cl)nc(Cl)nc1Nc1ccccc1` [Compound 106], the “Biological Activity (% inhibition at 10 μM)” value was determined as 53%. For the compound `CC(=O)c1c(C)nc(-c2ccc(Cl)cc2)nc1N` [Compound 107], the “Biological Activity (% inhibition at 10 μM)” value is recorded as 52%. Take `Cc1nc(N)nc(N)c1C=Cc1ccccc1` [Compound 109]: the “Biological Activity (% inhibition at 10 μM)” value is 38%.

Consider `Cc1nc(N)nc(N)c1OCc1ccc(Cl)cc1Cl` [Compound 110], for which the “Biological Activity (% inhibition at 10 μM)” value was found to be 38%. Same read-out and setting: as for `Cc1nc(N)nc(N)c1OCCc1ccc(Cl)cc1` [Compound 111], the figure is 37%; as for `Cc1nc(N)nc(N)c1-c1ccc(Cl)c(Cl)c1` [Compound 112], 36%; as for `COc1cc(N)nc(SCc2ccccc2Cl)n1` [Compound 113], 36%. In the case of `Cc1cc(O)nc(SCc2ccc(Cl)cc2Cl)n1` [Compound 114], the “Biological Activity (% inhibition at 10 μM)” value was 35%. Still for that read-out and setting: as for `COc1ccc(Cc2c(O)nc(S)nc2O)cc1` [Compound 116], the figure is 33%; as for `Cc1ccccc1CCCc1c(C)nc(N)nc1N` [Compound 118], 31%.

The same assay, now with this note: Table 2; % reduction of hSOD-1 protein levels in HeLa cells, 72 h treatment, 10 μM.
For the compound `Cc1ccc(Nc2nc(N)nc(Cl)n2)cc1` [Compound 164], the “Biological Activity (% inhibition at 10 μM)” value was 43%. The same measure, in the same setting: the value for `Cc1ccc(Nc2nc(N)nc(CCl)n2)c(C)c1` [Compound 165] was 99%; that for `CCSc1nc(-c2ccccc2)nc(C(Cl)Cl)n1` [Compound 166] was 98%. Still for that read-out and setting: the value for `CSc1nc(-c2ccc(C)cc2)nc(C(Cl)Cl)n1` [Compound 168] was 75%. For `CCCCNc1nc(N)nc(-c2cc(Cl)ccc2O)n1` [Compound 170], the “Biological Activity (% inhibition at 10 μM)” value amounted to 99%. Still for that read-out and setting: as for `CC(C)Nc1nc(Cl)nc(-c2ccccc2)n1` [Compound 186], the figure is 82%. As to `Nc1nc(CCl)nc(Nc2ccccc2)n1` [Compound 187], the “Biological Activity (% inhibition at 10 μM)” value turned out to be 77%.

As for `CC(Nc1nc(N)nc(Cl)n1)c1ccccc1` (stereo not shown) [Compound 188], the “Biological Activity (% inhibition at 10 μM)” value is 38%. Still for that read-out and setting: as for `CNc1nc(N)nc(-c2cc(Cl)ccc2OC)n1` [Compound 189], the figure is 35%; as for `Nc1nc(N)nc(-c2ccccc2Cl)n1` [Compound 190], 34%; as for `CCCNc1nc(N)nc(-c2cc(Cl)ccc2OC)n1` [Compound 191], 32%. For `Nc1nc(N)nc(-c2cccc([N+](=O)[O-])c2)n1` [Compound 192], the “Biological Activity (% inhibition at 10 μM)” value was found to be 32%. The same measure, in the same setting: the value for `Nc1nc(Nc2ccc(Cl)cc2)nc(C(Cl)Cl)n1` [Compound 193] was 29%.

The assay is the same for the next values; noted with them: Table 3; % reduction of hSOD-1 protein levels in HeLa cells, 72 h treatment, 10 μM.
With `COc1cccc2oc(-c3ccccc3O)cc(=O)c12` [Compound 121], the “Biological Activity (% inhibition at 10 μM)” value is 71%.

Still in this assay, the particulars now being: Table 4 quinazolines; % reduction of hSOD-1 protein levels in HeLa cells following 72 h treatment with 10 μM compound.
For `CN1CCN(c2cc(C(F)(F)F)nc3ccc(F)cc23)CC1` [Compound 136], the “Biological Activity (% inhibition at 10 μM)” value was 64%.

Still in this assay, the particulars now being: Table 5 heterocyclic amides; % reduction of hSOD-1 protein levels in HeLa cells following 72 h treatment with 10 μM compound.
For `Nc1ccc(C(=O)Nc2ncccn2)cc1` [Compound 194], the “Biological Activity (% inhibition at 10 μM)” value is reported as 92%. The same measure, in the same setting: as for `Cc1ccc(C(=O)Nc2ncccc2Cl)cc1` [Compound 197], the figure is 74%.

For the compound `Cc1ccnc(NC(=O)c2cccc(Cl)c2)c1` [Compound 198], the “Biological Activity (% inhibition at 10 μM)” value stood at 67%. Consider `Cc1ccc(NC(=O)c2cc(Cl)ccc2Cl)nc1` [Compound 199], for which the “Biological Activity (% inhibition at 10 μM)” value is 94%. Same read-out and setting: as for `Cc1ccc(C(=O)Nc2ccc(Cl)cn2)cc1C` [Compound 200], the figure is 39%; as for `Cc1cccc(C(=O)Nc2ccc(Cl)cn2)c1` [Compound 201], 39%.
